Measured values published in patent publication US20030236202A1, “Natural products and derivatives thereof for protection against neurodegenerative diseases” (priority 2002, published 2003).

Key:
[1] = Compound in cerebrospinal fluid of rats after oral administration (gas chromatography); type: in vivo, rat; settings: rats which had received tyrosol orally
[2] = system: primary hippocampal cultures from rat; experiment: Neuroprotection: rescue of neuronal cells from neurotoxin-induced apoptosis; type: cell-based; settings: 50 μM
Method: The capacity of two phenolic compounds to rescue neuronal cells from different kind of stressors was tested. To primary hippocampal cultures from rat, different neurotoxins (glutamate, hydrogen peroxide or beta-amyloid peptide) were added in such concentrations that in half of the cells apoptosis was induced. Then, together with the toxins, hydroxytyrosol or tyrosol were added in a final concentration of 50 μM, and the cells were incubated for 24 h. at 37° C. Subsequently, apoptosis was measured in the cell cultures and the number of cells that were protected by this treatment as compared to a control was calculated. […] Hydroxytyrosol protected around 60% of the cells against hydrogen peroxide, 35% against glutamate-induced neurotoxicity, and 45% against beta-amyloid induced apoptosis.

[3] = Total antioxidant capacity of cerebrospinal fluid after oral administration; type: in vivo; settings: rat, 100 mg oral, after 15 min
Method: Several rats were given 100 mg hydroxytyrosol by oral administration. After 15 min a small amount of cerebrospinal fluid was taken from the rat and analysed for the presence of hydroxytyrosol. Also the total antioxidant capacity in this fluid was measured and compared with a control. The detection of hydroxytyrosol was accomplished by gas chromatography and concentrations were determined by a standard curve. Hydroxytyrosol reached a concentration between 0.1 and 0.2 mM in cerebrospinal fluid after 15 minutes of oral administration. Moreover, the total antioxidant capacity of cerebrospinal fluid increased by 35% under these conditions as compared to a control.

[4] = system: Beta-amyloid peptide (1-40); experiment: Prevention of metal-induced beta-amyloid precipitation (turbidometric assay); settings: 25 μM compound, 10 μM beta-amyloid (1-40)
Method: Therefore, an experiment was performed to study its capacity to solubilize beta-amyloid peptide from insoluble aggregates. Beta-amyloid peptide (1-40) was brought to 10 μM in 150 mM NaCl, 50 mM HEPES (pH 7.4), and mixed with 10 μM CuCl2 or 10 μM FeCl3. Precipitation of beta-amyloid peptide by copper and iron was measured by a turbidometric assay (Huang et al. J. Biol. Chem. 1997, 272(42), 26464-70). Copper- and iron-induced turbidity was almost completely abolished (>90%) by the presence of 25 μM hydroxytyrosol.

[5] = target: T1, monoamine oxidase B (MAO-B) (Rattus norvegicus, UniProt P19643); experiment: Monoamine oxidase inhibition, purified mitochondria from rat brain tissue; type: biochemical; settings: benzylamine (300 μM) as substrate
T1 construct: MAO-B enzyme activities were measured using purified mitochondria from rat brain tissue; from tissue; host or cells: purified mitochondria from rat brain tissue
T1 sequence (P19643 1-520): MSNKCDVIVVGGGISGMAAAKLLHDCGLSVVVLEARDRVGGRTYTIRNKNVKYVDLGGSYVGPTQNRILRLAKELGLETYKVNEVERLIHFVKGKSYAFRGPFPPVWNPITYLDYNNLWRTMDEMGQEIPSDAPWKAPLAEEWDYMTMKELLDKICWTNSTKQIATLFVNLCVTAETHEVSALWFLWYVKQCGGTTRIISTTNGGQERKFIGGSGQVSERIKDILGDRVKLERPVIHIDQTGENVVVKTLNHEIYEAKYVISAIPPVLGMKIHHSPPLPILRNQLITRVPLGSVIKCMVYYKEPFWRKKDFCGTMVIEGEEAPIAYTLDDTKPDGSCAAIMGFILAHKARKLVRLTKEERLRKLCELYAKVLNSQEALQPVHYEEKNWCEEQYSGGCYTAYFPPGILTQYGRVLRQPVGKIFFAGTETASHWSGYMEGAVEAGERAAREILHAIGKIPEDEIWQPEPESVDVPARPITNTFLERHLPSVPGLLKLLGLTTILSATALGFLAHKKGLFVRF
Method: We determined the IC50 of hydroxytyrosol for monoamine oxidase B (MAO-B). Therefore, MAO-B enzyme activities were measured using purified mitochondria from rat brain tissue as described previously (Holt et al. Anal. Biochem. 1997, 244, 384-392). Benzylamine (300 μM) was used as a substrate for MAO-B and the IC50 was calculated by adding different amounts of hydroxytyrosol to the enzyme assay.

[6] = 24 h at 37° C., toxin inducing apoptosis in half of the cells

| SMILES | Tyrosol in cerebrospinal fluid (in words) [1] | Protection of cells from dying (in words) ([2]; 24 h, glutamate, hydrogen peroxide or beta-amyloid peptide) | Increase of total antioxidant capacity of cerebrospinal fluid as compared to a control [3] [%] | Binding of iron, zinc and copper ions (in words) (Binding of metal ions) | Copper-induced turbidity abolished ([4]; 10 μM CuCl2, pH 7.4) [%] | Iron-induced turbidity abolished ([4]; 10 μM FeCl3, pH 7.4) [%] | Cells protected against beta-amyloid induced apoptosis [2, 6] [%] | Cells protected against glutamate-induced neurotoxicity [2, 6] [%] | Cells protected against hydrogen peroxide [2, 6] | IC50 [5] [µM] |
| --- | --- | --- | --- | --- | --- | --- | --- | --- | --- | --- |
| OCCc1ccc(O)cc1 [Tyrosol, 2-(4-hydroxyphenyl) ethanol] | detected | protected part of the cells from dying |  |  |  |  |  |  |  |  |
| OCCc1ccc(O)c(O)c1 [Hydroxytyrosol, 2-(3,4-dihydroxyphenyl) ethanol] |  |  | 35 | high affinity | > 90 | > 90 | ~45 | ~35 | around 60% | 16.3 ± 1.3 |
